Measurements: patent publication US20250295757A1 (priority 2022, published 2025)

System: SARS-CoV-2 (WT and OTS virus) in VeroET cells
Assay type: cell-based

| SMILES | number of infectious virus particles in a TCID50 virus assay |
| --- | --- |
| O=c1[nH]cc(F)c(=O)[nH]1 [5-Fluorouracil] | reduces |
| CC(C)C(=O)OC[C@H]1O[C@@H](n2ccc(NO)nc2=O)[C@H](O)[C@@H]1O [Malnupiravir] | reduces |
